From US9540338B2, “Substituted cinnamic acid amides for treating pain” (NIPPON ZOKI PHARMACEUTICAL CO., LTD., priority 2012, dated 2017) come the findings set out here.

Where a name gives a salt, the structure may show the parent alone. Marks after values point to notes of the source that are not given here.

One series deals with Chung model rat. Nature of the series: Analgesic efficacy test (2): Chung model rat, neuropathic pain model (allodynia, von Frey filament). The format is in vivo, rats. The following applies: mean ± standard error. The protocol: An analgesic efficacy test was conducted using a Chung model rat, a neuropathic pain model. Nine-week old Wistar male rats were previously bred as an experimental animal, and a model rat was then prepared in accordance with the method of Kim and Chung (Pain, 50, 355-363, 1992). Specifically, left L5 spinal nerves of rats were exposed under anesthetization with pentobarbital (40 mg/kg, intraperitoneal administration), and firmly ligated with 5-0 silk yarn at L5 dorsal root ganglion peripheral side. The animals were placed in a transparent acrylic cage of which bottom was wire netted The measurement of allodynia was carried out using von Frey filament (manufactured by North Coast Medical Inc.) and a 50% reaction threshold was calculated according to an up-down method, in accordance with a method of Chaplan et al. (J. Neurosci. Method, 53, 55-63, 1994). The 50% reaction thresholds were measured twice before injury of the spinal nerve, and those animals of which thresholds were outside the standard were removed from the operation of spinal nerve injury. On or after 14 days from the spinal nerve injury, a 50% reaction threshold was measured, and those showing thresholds of 1 g or more and less than 4 g were used as experimental animal. The group was constituted by 7 or 8 rats per group so that an average of a 50% reaction threshold for each group would be nearly even.
A solution or suspension prepared by dissolving or suspending a compound of the present invention in a 0.5% (w/v) aqueous CMC-Na solution was orally administered as a test substance in a single dose. Also, a 0.5% (w/v) aqueous CMC-Na solution was administered in the same manner to the control group for nerve injury. The measurements of allodynia were carried out with the passage of time after administration, and a 50% reaction threshold (mean±standard error) of each group at action peak was calculated. In the test for significance difference, Bartlett's test was carried out in the comparison between multiple groups of the group administered with test substance with the control group for nerve injury. In the case of homoscedasticity, Dunnett's multiple comparison test of parametrics, and in the case of heteroscedasticity, Dunnett's multiple comparison test of non-parametrics were used. In all cases, significance difference was considered to be found at P<0.05 (indicated as “*” in the tables).

[1] abbreviates: oral 1 mg/kg, measurement point 90 minute (action peak).
Setting [2] is: oral 10 mg/kg, measurement point 90 minute (action peak).
Where [3] appears, read: oral 1 mg/kg, measurement point 30 minute (action peak).
Where [4] appears, read: oral 10 mg/kg, measurement point 30 minute (action peak).
Where [5] appears, read: oral 1 mg/kg, measurement point 60 minute (action peak).
The mark [6] stands for this setting: oral 10 mg/kg, measurement point 60 minute (action peak).

Take `Cl.O=C(/C=C/c1ccccc1F)NCCCN1CC[S+]([O-])CC1` [Compound 68, (E)-3-(2-Fluorophenyl)-N-[3-(1-oxo-1,4-thiazinan-4-yl)propyl]-2-propenamide hydrochloride]: the melting point lay within 182 to 183 °C. In addition, the “50% Reaction Threshold, Group Administered with Test Substance, After Administration” value (“50% Reaction Threshold” for short) in the series on Chung model rat (setting [1]) is given as 9.04 ± 1.17* g. In the series on Chung model rat (setting [2]), the “50% Reaction Threshold” value was 11.25 ± 0.94* g.
In the case of `Cl.O=C(/C=C/c1ccccc1F)NCCCN1CCS(=O)(=O)CC1` [Compound 62, (E)-N-[3-(1,1-Dioxo-1,4-thiazinan-4-yl)propyl]-3-(2-fluorophenyl)-2-propenamide hydrochloride], the melting point lay in the range of 252 to 253 °C. The “50% Reaction Threshold” value with Chung model rat (setting [1]) amounted to 6.17 ± 1.33 g. Besides, the “50% Reaction Threshold” value with Chung model rat (setting [2]) was 9.22 ± 1.28* g.
In turn, `C/C(=C\c1ccc(F)cc1)C(=O)NCCCN1CCOCC1` [Compound 46, (E)-3-(4-Fluorophenyl)-2-methyl-N-(3-morpholinopropyl)-2-propenamide] registered a melting point of 78 to 79 °C. The “50% Reaction Threshold” value with Chung model rat (setting [3]) is reported as 7.51 ± 1.60* g. In the series on Chung model rat (setting [4]), the “50% Reaction Threshold” value is 8.70 ± 1.43* g.
`O=C(/C=C/c1cc(F)ccc1F)NCCCN1CCOCC1` [Compound 29, (E)-3-(2,5-Difluorophenyl)-N-(3-morpholinopropyl)-2-propenamide] had a melting point of 71 to 72 °C. Besides, the “50% Reaction Threshold” value with Chung model rat (setting [5]) came out at 5.10 ± 0.42 g. In addition, the “50% Reaction Threshold” value with Chung model rat (setting [6]) is 10.51 ± 1.15* g.
Regarding `Cl.O=C(/C=C/c1ccc(F)cc1)NCCCN1CCS(=O)(=O)CC1` [Compound 63, (E)-N-[3-(1,1-Dioxo-1,4-thiazinan-4-yl)propyl]-3-(4-fluorophenyl)-2-propenamide hydrochloride], the melting point fell in the range of 247 to 248 °C. Besides, the “50% Reaction Threshold” value in the series with Chung model rat (setting [1]) is given as 3.60 ± 0.35 g. Further, the “50% Reaction Threshold” value in the series on Chung model rat (setting [2]) is reported as 6.74 ± 0.62* g.
`O=C(/C=C/c1ccccc1F)NCCn1ccnn1` [Compound 40, (E)-3-(2-Fluorophenyl)-N-[2-([1,2,3]triazol-1-yl)ethyl]-2-propenamide]: the melting point fell in the range of 110 to 112 °C. In addition, the “50% Reaction Threshold” value in the series with Chung model rat (setting [5]) worked out at 3.61 ± 0.41 g. In addition, in the series with Chung model rat (setting [6]), the “50% Reaction Threshold” value was 5.86 ± 1.17* g.
In turn, `O=C(/C=C/c1ccc(F)cc1F)NCCn1ccnc1` [Compound 23, (E)-3-(2,4-Difluorophenyl)-N-[2-(imidazol-1-yl)ethyl]-2-propenamide] had a melting point of 113 to 115 °C. Further, in the series with Chung model rat (setting [1]), the “50% Reaction Threshold” value is 8.22 ± 1.43* g. For the same compound, the “50% Reaction Threshold” value in the series with Chung model rat (setting [2]) is recorded as 9.81 ± 1.27* g.
`O=C(/C=C/c1cc(F)ccc1F)NCCn1ccnc1` [Compound 24, (E)-3-(2,5-Difluorophenyl)-N-[2-(imidazol-1-yl)ethyl]-2-propenamide] gave a melting point of 118 to 120 °C. Moreover, the “50% Reaction Threshold” value with Chung model rat (setting [5]) was 4.63 ± 0.36 g. Besides, the “50% Reaction Threshold” value in the series with Chung model rat (setting [6]) was 7.85 ± 0.99* g.
For `O=C(/C=C/c1ccc(F)cc1F)NCCCN1CCOCC1` [Compound 28, (E)-3-(2,4-Difluorophenyl)-N-(3-morpholinopropyl)-2-propenamide] the same measures were 94 to 95 °C, 8.44 ± 1.81* g and 12.05 ± 1.44* g.
On the same counts, the results for `O=C(/C=C/c1cccc(F)c1)NCCCN1CCOCC1` [Compound 25, (E)-3-(3-Fluorophenyl)-N-(3-morpholinopropyl)-2-propenamide] are 80 to 81 °C, 8.17 ± 1.09* g and 9.68 ± 1.20* g.
On the same counts, the results for `Cl.O=C(/C=C/c1ccccc1F)NCCCN1CCSCC1` [Compound 61, (E)-3-(2-Fluorophenyl)-N-(3-thiomorpholinopropyl)-2-propenamide hydrochloride] are 178 to 179 °C, 10.64 ± 1.38* g and 11.81 ± 1.47* g.
Consider `N#C/C(=C\c1ccc(F)cc1)C(=O)NCCCN1CCOCC1` [Compound 58, (E)-2-Cyano-3-(4-fluorophenyl)-N-(3-morpholinopropyl)-2-propenamide], for which the melting point lay within 110 to 111 °C.
On the same count and under the same terms, for `O=C(/C=C/c1ccccc1F)NCCCN1CCNCC1` (as salt: hydrochloride) the value was 143 to 144 °C.
`O=C(/C=C/c1ccc(F)cc1)Nc1ccc(N2CCOCC2)cc1` [Compound 33, (E)-3-(4-Fluorophenyl)-N-[4-morpholinophenyl]-2-propenamide]: the melting point lay in the range of 223 to 224 °C. Moreover, the “50% Reaction Threshold” value in the series with Chung model rat (setting [5]) was 8.93 ± 1.46* g. Further, the “50% Reaction Threshold” value in the series with Chung model rat (setting [6]) is reported as 9.35 ± 2.10* g.
In turn, `CN1CCN(CCCNC(=O)/C=C/c2ccccc2F)CC1` (as salt: hydrochloride) [Compound 15, (E)-3-(2-Fluorophenyl)-N-[3-(4-methylpiperazin-1-yl)propyl]-2-propenamide dihydrochloride] had a melting point of 133 to 138 °C.
On the same count and under the same terms, for `O=C(/C=C/c1ccccc1F)NCCN1CCNCC1` (as salt: hydrochloride) [Compound 16, (E)-3-(2-Fluorophenyl)-N-[2-(piperazin-1-yl)ethyl]-2-propenamide dihydrochloride] the value was 212 to 213 °C.
The compound `Cc1nccn1CCNC(=O)/C=C/c1ccccc1F` [Compound 42, (E)-3-(2-Fluorophenyl)-N-[2-(2-methylimidazol-1-yl)ethyl]-2-propenamide] showed a melting point of 127 to 129 °C. Further, in the series with Chung model rat (setting [3]), the “50% Reaction Threshold” value stood at 2.60 ± 0.32 g. Further, in the series on Chung model rat (setting [4]), the “50% Reaction Threshold” value is 4.24 ± 0.35* g.
The compound `O=C(/C=C/c1ccccc1F)NCc1cccc(N2CCSCC2)c1` [Compound 69, (E)-3-(2-Fluorophenyl)-N-[(3-thiomorpholinophenyl)methyl]-2-propenamide] returned a melting point of 154 to 155 °C. In addition, in the series with Chung model rat (setting [5]), the “50% Reaction Threshold” value was 3.68 ± 0.40* g. The “50% Reaction Threshold” value in the series with Chung model rat (setting [6]) is listed as 4.35 ± 0.51* g.
`O=C(/C=C/c1ccc(F)cc1)NCCCN1CCSCC1` [Compound 60, (E)-3-(4-Fluorophenyl)-N-(3-thiomorpholinopropyl)-2-propenamide]: the melting point lay in the range of 121 to 122 °C. For the same compound, the “50% Reaction Threshold” value in the series with Chung model rat (setting [3]) is recorded as 4.03 ± 0.54 g. Besides, in the series on Chung model rat (setting [4]), the “50% Reaction Threshold” value is listed as 8.45 ± 1.01* g.
`O=C(/C=C/c1ccccc1F)Nc1ccc(-c2ccn[nH]2)cc1` [Compound 51, (E)-3-(2-Fluorophenyl)-N-[4-(2H-pyrazol-3-yl)phenyl]-2-propenamide] returned a melting point of 116 to 118 °C.
Compound `O=C(/C=C/c1ccc(F)c(F)c1)NCCCN1CCOCC1` [Compound 31, (E)-3-(3,4-Difluorophenyl)-N-(3-morpholinopropyl)-2-propenamide] displayed a melting point of 127 to 128 °C.
Still for that read-out and setting: for `Cl.O=C(/C=C/c1cccc(C(=O)O)c1)NCCn1ccnc1` the value was 195 to 197 °C; for `O=C(/C=C/c1ccccc1F)Nc1ccc(-c2ccno2)cc1` [Compound 53, (E)-3-(2-Fluorophenyl)-N-[4-(isoxazol-5-yl)phenyl]-2-propenamide], 204 to 206 °C.
On the same count and under the same terms, the figure for `O=C(/C=C/c1ccccc1F)NCCN1CCCC1` [Compound 35, (E)-3-(2-Fluorophenyl)-N-[2-(pyrrolidin-1-yl)ethyl]-2-propenamide] is 83 to 84 °C; for `CN(C)CCCCNC(=O)/C=C/c1ccccc1F.Cl` it is 107 to 108 °C.
On the same count and under the same terms, for `COc1ccc(CCNC(=O)/C=C/c2ccccc2F)cc1` [Compound 37, (E)-3-(2-Fluorophenyl)-N-[2-(4-methoxyphenyl)ethyl]-2-propenamide] the value was 123 to 124 °C; for `O=C(/C=C/c1ccccc1F)NCCn1ccnc1-c1ccccc1` [Compound 44, (E)-3-(2-Fluorophenyl)-N-[2-(2-phenylimidazol-1-yl)ethyl]-2-propenamide], 163 to 164 °C.
